Earlier results as cited in patent US20070196488A1, “Oral matrix formulations comprising licarbazepine” (priority 2004, published 2007).

System: epilepsy
Details: racemate compared with both pure enantiomers

**Q.** With NC(=O)N1c2ccccc2CC(O)c2ccccc21 (racemic) [Licarbazepine, 10,11-dihydro-10-hydroxy-5H-dibenz[b,f]azepine-5-carboxamide] as the compound, how does the efficacy against epilepsy read?
**A.** equal efficacy
